According to US4863748A, “Dietary products and uses comprising methylsulfonylmethane” (priority 1986, dated 1989):

Tests used:
rabbit eye = experiment: Rabbit eye irritated with sodium lauryl sulfate (Example 14); format: in vivo; conditions: 10% aqueous solution every hour
[1] = system: physical fatigue syndrome; experiment: Post-athletic activity fatigue (Example 25); format: in vivo, human; conditions: 1-2 gm/day, preceding six months; usually 8-10 days
Source text: The physical fatigue syndrome following intense athletic activity in competitive sports which usually persists for 8-10 days in athletes was gone in 2-3 days in individuals who had ingested methylsulfonylmethane (from 1-2 gm/day in split dosages) for the preceding six months.

[2] = cited from earlier work
eye = experiment: Inflammation of the eye following accidental injury (Example 14); format: in vivo, human; conditions: 15% solution in isotonic saline
Source text: A 15% solution of methylsulfonylmethane in isotonic saline was a soothing treatment for the eye following accidental injury due to particulate matter in the eye as dust or pollen.

weight gain = experiment: Diet supplement in animals (Example 18); format: in vivo, laboratory animals, including dogs
Source text: A possible explanation for this is that any minor allergic response to the diet was neutralized by the methylsulfonylmethane.

[3] = system: sharp pain spasms in the lower abdominal region; experiment: Acute pain, comparison with codeine, subject one (Example 33); format: in vivo, human
Method: Codeine and methylsulfonylmethane were compared for the relief of pain in subject one, a person who had sharp pain spasms in the lower abdominal region. Subject's appendix had been removed. Pain began after suffering an accidental traumatic blow to the abdomen during a volley ball game. Pyelogram examination indicated no obstruction. […] Codeine (2) plus 1/4 grain with aspirin every 4 hours, provided some relief. The codeine/aspirin was discontinued and 1 g methylsulfonylmethane in warm water was given. A half-hour later all discomfort ceased. A second gram of methylsulfonylmethane in water was given 4 hours later, after which the subject continued pain free.

Giardia lamblia = experiment: Treatment of Giardia infection in a subject (Example 28(b)); format: in vivo, human; conditions: 500 mg orally three times/24 hours × 14 days
Method: One subject with confirmed Giardia, apparently contacted from contaminated water in a primitive area, was given 500 mg of methylsulfonylmethane orally three times/24 hours×14 days. By the eighth day they were asymptomatic.

[4] = system: spontaneous mouse lymphomas; experiment: Spontaneous mouse lymphomas, survival (Example 37); format: in vivo, laboratory mice; conditions: 3% by wt. in water; all 12 controls dead by month 4
Method: Laboratory mice genetically predisposed to lymphoma development were selected for this test. Humoral immunity participation was measured as was the effect of methylsulfonylmethane on an animal's life span. One set of 12 mice were maintained as controls. The treated (T) group received identical treatment except for their water given ad lib, which contained 3% by wt. of methylsulfonylmethane in solution.
By month 4 of this test, all controls were dead, due to lymphoma development. […] These normal balb/c strain mice of group T were tested for t-lymphocyte dependent (t-d) and t-lymphocyte independent (t-i) immune responses. […] Based on these preliminary results, at high enough daily rates of ingestion, methylsulfonylmethane stimulates humoral immunity thereby providing protection to otherwise lethal spontaneous mouse lymphomas.

[5] = system: nutritional secondary hyperparathyroidism with obvious epiphysitis; experiment: Nutritional secondary hyperparathyroidism with epiphysitis in horses (Example 3); format: in vivo, horse; conditions: 12 grams twice daily in feed; conventional treatment 60-90 days minimum
Source text: Calcium/phosphorous balance is critical in the horse, where these elements comprise roughly 70% of the mineral content of the horse's body. Calcium deficiency, or the reverse, viz., phosphorous excess, is undesirable. Phosphorous excess in feed will decrease intestinal absorption, resulting in lowered blood plasma calcium. One result is a stimulation in the dietary deficiency condition called nutritional secondary hyperparathyroidism. Calcium denied for bone development results in an enlargement of structurally defective fibrous tissue. In horse leg bones, it is called epiphysitis when stress inflammation is presented.
Two colts and four fillies were studied, all diagnosed as having nutritional secondary hyperparathyroidism with obvious epiphysitis. Each was provided with 12 grams of methylsulfonylmethane twice daily in a bran/molasses blend intermixed with their standard dry feed prior to feeding. The supplemented feed was well accepted. All signs and symptoms of this nutritional deficiency disease was corrected in from seven to ten days. Conventional treatment for correcting dietary calcium deficiency requires a minimum of 60-90 days before relief from inflammation is obtained. Except for the added methylsulfonylmethane, there was no change in the diet of these […] horses. The added dietary factor corrected this easily recognizable dietary deficiency in all of the horses.

Trichomonas vaginalis = experiment: Treatment of Trichomonas vaginalis infection in subjects (Example 28(a)); format: in vivo, human
Source text: Both had prior courses of therapy for this disorder without adequate response. […]
One subject was later reinfected by their sexual partner but the reinfection was cleared employing a daily douche of 5% aqueous methylsulfonylmethane for one week.

[6] = Pin worm (Enterobius) infection in laboratory mice (Examples 19 and 28(c)); format: in vivo; conditions: mouse, blood, po; one animal examined; 2% by wt. in feed and drinking water; read-out: blood level of methylsulfonylmethane
Source text: (§1) Laboratory mice determined by fecal cast examination to have pin worms were given commercial feed and drinking water, ad lib, both of which contained 2% by wt. methylsulfonylmethane. […] The blood level of methylsulfonylmethane in one animal examined exceeded 30 ppm.
(§2) Laboratory mice determined by fecal cast examination to have pin worms were given 2% by wt. of methylsulfonylmethane in both their commercial feed and drinking water, ad lib.

Enterobius (pin worms) = experiment: as above; format: in vivo; conditions: 2% by wt. in feed and drinking water
Source text: as §1, §2

[7] = about 60 and about 500 mg/day/kg body wt.

CS(C)(=O)=O [methylsulfonylmethane]
clearing of irritated eye (rabbit eye): quickly cleared | duration of physical fatigue syndrome [1]: 2 to 3 days | motor activity ([2]; i.p.): reduces | body temperature ([2]; rats exposed to 5° C.): lowers | effect on the eye following accidental injury (eye): soothing | fur quality (weight gain; [7]): improved | nail growth (weight gain; [7]): somewhat faster | weight gain of immature animals vs controls (weight gain; [7]): gained weight at a greater rate | weight increases with adult animals (weight gain; comparable feeding experiments): not seen | time until all discomfort ceased ([3]; 1 g in warm water, oral): A half-hour | pain after second gram ([3]; second gram 4 hours later): pain free | organism in two stool specimens (Giardia lamblia; collected one week apart): free of the organism | symptoms by the eighth day (Giardia lamblia; one subject): asymptomatic | deaths by month 5 [4]: No T group mice had died | time to correction of all signs and symptoms [5]: seven to ten | outcome in subject's partner (Trichomonas vaginalis; 500 mg twice daily, two weeks): successfully treated | reinfection (Trichomonas vaginalis; daily douche of 5% aqueous, one week): cleared | concentration at 408 h [6]: > 30000 ng/mL | worms and eggs in fecal cast after 17 days (Enterobius (pin worms)): free of worms and eggs
